{"source": "paper PMC11649115", "about": "“In vitro safety evaluation of dopamine D3R antagonist, R-VK4-116, as a potential medication for the treatment of opioid use disorder” (PLOS ONE, 2024)", "key": {"[1]": {"assay": "Metabolic stability in liver microsomes", "conditions": "for % remaining: monkey liver microsomes, 10 μM"}, "[2]": {"assay": "Metabolic stability in liver microsomes", "conditions": "for % remaining: dog liver microsomes, 10 μM"}, "[3]": {"assay": "Metabolic stability in liver microsomes"}, "dog hepatocytes": {"test_system": "dog hepatocytes", "assay": "Metabolic stability in hepatocyte", "conditions": "dog hepatocytes, 10 μM", "description": "(§1) CYP3A4 substrate Midazolam (10 μM) was prepared and incubated in the same manner. […] In addition, in vitro half-life (t1/2, min) and intrinsic clearance (CLint, μl/min/10^6 cells) were calculated [10, 11]."}, "[4]": {"assay": "Metabolic stability in hepatocyte", "conditions": "Beagle, dog, hepatocytes", "description": "as §1"}, "[5]": {"assay": "Metabolic stability in hepatocyte", "conditions": "Sprague Dawley, rat, hepatocytes", "description": "as §1"}, "rat hepatocytes": {"test_system": "rat hepatocytes", "assay": "Metabolic stability in hepatocyte", "conditions": "rat hepatocytes, 10 μM", "description": "as §1"}, "[6]": {"assay": "Metabolic stability in liver microsomes", "remark": "listed apart in the source"}, "[7]": {"assay": "Stability in the absence of hepatocytes", "conditions": "no hepatocytes, 10 μM", "description": "as §1"}, "[8]": {"assay": "Metabolic stability in hepatocyte", "conditions": "human, hepatocytes", "description": "as §1"}, "human hepatocytes": {"test_system": "human hepatocytes", "assay": "Metabolic stability in hepatocyte", "conditions": "human hepatocytes, 10 μM", "description": "as §1"}, "P-gp": {"target": "T1, P-gp (Homo sapiens, UniProt P08183)", "T1 construct": "expressed in transfected cells; host or cells: MDCK-II cells", "T1 sequence (P08183 whole entry)": "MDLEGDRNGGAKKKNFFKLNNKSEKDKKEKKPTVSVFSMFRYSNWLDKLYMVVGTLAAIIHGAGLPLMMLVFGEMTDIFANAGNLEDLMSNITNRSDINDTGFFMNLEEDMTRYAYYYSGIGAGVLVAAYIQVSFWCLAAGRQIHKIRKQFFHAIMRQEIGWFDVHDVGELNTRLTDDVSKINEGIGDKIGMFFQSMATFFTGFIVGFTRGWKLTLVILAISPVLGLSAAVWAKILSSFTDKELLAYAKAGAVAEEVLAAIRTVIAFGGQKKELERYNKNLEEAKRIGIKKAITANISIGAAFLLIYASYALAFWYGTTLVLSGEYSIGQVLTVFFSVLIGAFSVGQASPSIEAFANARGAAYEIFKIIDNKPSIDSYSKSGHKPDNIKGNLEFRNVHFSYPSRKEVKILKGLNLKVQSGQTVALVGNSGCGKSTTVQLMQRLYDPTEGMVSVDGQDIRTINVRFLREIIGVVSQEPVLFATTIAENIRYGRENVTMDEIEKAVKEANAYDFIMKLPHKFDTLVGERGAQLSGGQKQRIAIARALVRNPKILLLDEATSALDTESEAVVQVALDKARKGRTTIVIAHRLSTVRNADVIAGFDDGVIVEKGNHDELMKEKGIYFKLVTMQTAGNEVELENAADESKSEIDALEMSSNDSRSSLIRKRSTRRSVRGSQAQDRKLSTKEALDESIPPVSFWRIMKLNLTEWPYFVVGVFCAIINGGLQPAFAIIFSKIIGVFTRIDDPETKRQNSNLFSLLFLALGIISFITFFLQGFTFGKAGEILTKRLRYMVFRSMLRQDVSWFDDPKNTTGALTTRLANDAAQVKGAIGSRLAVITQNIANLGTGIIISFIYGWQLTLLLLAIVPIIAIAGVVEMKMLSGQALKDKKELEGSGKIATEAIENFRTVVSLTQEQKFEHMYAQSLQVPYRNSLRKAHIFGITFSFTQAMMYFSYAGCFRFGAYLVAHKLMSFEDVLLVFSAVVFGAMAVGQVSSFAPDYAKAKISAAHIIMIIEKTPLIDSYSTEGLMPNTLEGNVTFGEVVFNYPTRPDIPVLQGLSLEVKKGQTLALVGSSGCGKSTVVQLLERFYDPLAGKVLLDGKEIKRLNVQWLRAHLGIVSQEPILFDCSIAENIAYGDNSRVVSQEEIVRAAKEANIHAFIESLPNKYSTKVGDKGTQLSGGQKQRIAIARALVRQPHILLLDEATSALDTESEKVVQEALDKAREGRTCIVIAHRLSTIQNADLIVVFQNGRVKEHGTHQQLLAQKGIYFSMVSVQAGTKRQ", "assay": "Transporter mediated assay (substrate/inhibitor), MDCK-II cells", "assay_type": "in vitro ADME", "conditions": "human, probe quinidine 0.1 μM", "description": "(§2) The MDCK-II cells were treated to express the transporter of interest.\n(§3) For BCRP and P-gp, the apparent permeability Papp and Efflux Ratio (ER) were calculated [16]. Net basal (B) to apical (A) flux (B → A) of the substrate transport (pmol/min/cm^2) by BCRP or P-gp was calculated by subtracting A → B flux from B → A flux."}, "BCRP": {"target": "T2, BCRP (Homo sapiens, UniProt Q9UNQ0)", "T2 construct": "expressed in transfected cells; host or cells: MDCK-II cells", "T2 sequence (Q9UNQ0 1-655)": "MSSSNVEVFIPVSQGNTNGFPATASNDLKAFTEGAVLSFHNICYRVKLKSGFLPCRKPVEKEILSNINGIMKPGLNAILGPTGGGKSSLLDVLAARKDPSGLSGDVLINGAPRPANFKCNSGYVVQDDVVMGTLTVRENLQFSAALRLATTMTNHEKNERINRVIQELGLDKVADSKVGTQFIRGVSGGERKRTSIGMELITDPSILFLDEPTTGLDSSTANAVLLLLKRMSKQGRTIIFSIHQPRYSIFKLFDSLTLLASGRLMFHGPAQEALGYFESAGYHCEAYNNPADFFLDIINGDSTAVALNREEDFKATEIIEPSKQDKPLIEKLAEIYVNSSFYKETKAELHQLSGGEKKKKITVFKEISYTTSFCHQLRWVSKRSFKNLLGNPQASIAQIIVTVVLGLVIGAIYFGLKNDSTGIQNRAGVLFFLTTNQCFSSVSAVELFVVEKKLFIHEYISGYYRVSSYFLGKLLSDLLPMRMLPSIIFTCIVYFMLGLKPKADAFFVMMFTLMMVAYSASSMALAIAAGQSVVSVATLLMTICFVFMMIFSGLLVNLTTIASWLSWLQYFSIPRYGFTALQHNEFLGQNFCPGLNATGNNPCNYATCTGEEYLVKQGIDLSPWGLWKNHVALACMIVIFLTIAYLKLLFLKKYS", "assay": "Transporter mediated assay (substrate/inhibitor), MDCK-II cells", "assay_type": "in vitro ADME", "conditions": "BCRP, substrate test, 2 µM", "description": "as §2, §3"}, "HepG2 cells": {"test_system": "HepG2 cells", "assay": "Mitochondrial toxicity (MT) assay panel", "assay_type": "cell-based", "conditions": "HepG2, 100 µM", "method": "The assay results were presented as % cell viability. […] After each incubation, the cells were harvested and lysed to test the MT assay panel. The Zalcitabine (positive control) was also included in this assay (Fig 3 in S1 File). The levels of Mitochondrial Oxidative Phosphorylation (OXPHOS) complex 1 (NADH dehydrogenase; ab178011, lot #GR 3339973–1), complex 3 (CytC reductase; ab124537, lot #GR3276896-3), complex 4 (CytC Oxidase; ab179880, lot #GR3273194-1), and complex 5 (ATP synthase; ab124539, lot #GR3267780-4) in the cell lysates were determined using respective indirect ELISA as per manufacturer’s instructions. The total ATP content of the cell lysates was determined using an ATP assay kit (ab83355, lot #GR3314128-2, Abcam, Cambridge, MA). The Caspase 3 content of the cell lysates was determined using the Caspase-3 assay kit (ab39401, lot #GR3322733-1, Abcam, Cambridge, MA). In addition, the total glutathione content was determined using the total glutathione (GSSG/GSH) assay kit (STA-312, lot #09100263, Oxiselect™, San Diego, CA). Using an Oxiselect™ ROS/RNS assay kit (STA-347, lot #7081343, Cell Biolabs Inc. San Diego, CA), the ROS/RNS content of the cell lysates was determined by fluorescence assay."}}}
{"compound": "Cc1ncc2n1-c1ccc(Cl)cc1C(c1ccccc1F)=NC2", "note": "[Midazolam, reference compound]", "values": [{"measurement": "% remaining", "setting": "[1]; 60 min", "result": 0.0, "unit": "%"}, {"measurement": "% remaining", "setting": "[1]; 90 min", "result": 0.0, "unit": "%"}, {"measurement": "% remaining", "setting": "[1]; 120 min", "result": 0.0, "unit": "%"}, {"measurement": "remaining at 0 h, 10 μM", "setting": "[1]; monkey, microsomes, pH 7.4", "result": 100, "unit": "%"}, {"measurement": "remaining at 0.5 h, 10 μM", "setting": "[1]; monkey, microsomes, pH 7.4", "result": 0.1, "unit": "%"}, {"measurement": "remaining at 2 h, 10 μM", "setting": "[1]; monkey, microsomes, pH 7.4", "result": 91.8, "unit": "%"}, {"measurement": "% remaining", "setting": "[2]; 90 min", "result": 0.0, "unit": "%"}, {"measurement": "% remaining", "setting": "[2]; 120 min", "result": 0.0, "unit": "%"}, {"measurement": "remaining at 0 h, 10 μM", "setting": "[2]; dog, microsomes, pH 7.4", "result": 100, "unit": "%"}, {"measurement": "remaining at 0.5 h, 10 μM", "setting": "[2]; dog, microsomes, pH 7.4", "result": 0.3, "unit": "%"}, {"measurement": "remaining at 1 h, 10 μM", "setting": "[2]; dog, microsomes, pH 7.4", "result": 0.1, "unit": "%"}, {"measurement": "remaining at 2 h, 10 μM", "setting": "[2]; dog, microsomes, pH 7.4", "result": 95.8, "unit": "%"}, {"measurement": "% remaining", "setting": "[3]; human liver microsomes, 10 μM, 120 min", "result": 0.0, "unit": "%"}, {"measurement": "remaining at 0 h, 10 μM", "setting": "[3]; human, microsomes, pH 7.4", "result": 100, "unit": "%"}, {"measurement": "remaining at 0.5 h, 10 μM", "setting": "[3]; human, microsomes, pH 7.4", "result": 9.7, "unit": "%"}, {"measurement": "remaining at 1 h, 10 μM", "setting": "[3]; human, microsomes, pH 7.4", "result": 1, "unit": "%"}, {"measurement": "remaining at 1.5 h, 10 μM", "setting": "[3]; human, microsomes, pH 7.4", "result": 0.2, "unit": "%"}, {"measurement": "remaining at 2 h, 10 μM", "setting": "[3]; human, microsomes, pH 7.4", "result": 101, "unit": "%"}, {"measurement": "% remaining Vs T = 0 min", "setting": "dog hepatocytes; 0 min", "result": 100.0, "unit": "%"}, {"measurement": "% remaining Vs T = 0 min", "setting": "dog hepatocytes; 30 min", "result": 66.6, "unit": "%"}, {"measurement": "% remaining Vs T = 0 min", "setting": "dog hepatocytes; 60 min", "result": 50.8, "unit": "%"}, {"measurement": "% remaining Vs T = 0 min", "setting": "dog hepatocytes; 90 min", "result": 31.2, "unit": "%"}, {"measurement": "% remaining Vs T = 0 min", "setting": "dog hepatocytes; 120 min", "result": 19.5, "unit": "%"}, {"measurement": "half-life at 10 μM", "setting": "[4]", "result": 0.855, "unit": "h"}, {"measurement": "hepatocyte CLint at 10 μM", "setting": "[4]", "result": 27, "unit": "µL/min/1e6 cells"}, {"measurement": "half-life at 10 μM", "setting": "[5]", "result": 3.22, "unit": "h"}, {"measurement": "hepatocyte CLint at 10 μM", "setting": "[5]", "result": 7.2, "unit": "µL/min/1e6 cells"}, {"measurement": "% remaining Vs T = 0 min", "setting": "rat hepatocytes; 0 min", "result": 100.0, "unit": "%"}, {"measurement": "% remaining Vs T = 0 min", "setting": "rat hepatocytes; 30 min", "result": 89.0, "unit": "%"}, {"measurement": "% remaining Vs T = 0 min", "setting": "rat hepatocytes; 60 min", "result": 77.8, "unit": "%"}, {"measurement": "% remaining Vs T = 0 min", "setting": "rat hepatocytes; 90 min", "result": 70.5, "unit": "%"}, {"measurement": "% remaining Vs T = 0 min", "setting": "rat hepatocytes; 120 min", "result": 65.7, "unit": "%"}, {"measurement": "% remaining", "setting": "[6]; rat liver microsomes, 10 μM, 120 min", "result": 0.0, "unit": "%"}, {"measurement": "remaining at 0 h, 10 μM", "setting": "[6]; rat, microsomes, pH 7.4", "result": 100, "unit": "%"}, {"measurement": "remaining at 0.5 h, 10 μM", "setting": "[6]; rat, microsomes, pH 7.4", "result": 5.8, "unit": "%"}, {"measurement": "remaining at 1 h, 10 μM", "setting": "[6]; rat, microsomes, pH 7.4", "result": 0.4, "unit": "%"}, {"measurement": "remaining at 1.5 h, 10 μM", "setting": "[6]; rat, microsomes, pH 7.4", "result": 0.1, "unit": "%"}, {"measurement": "remaining at 2 h, 10 μM", "setting": "[6]; rat, microsomes, pH 7.4", "result": 102, "unit": "%"}, {"measurement": "% remaining Vs T = 0 min", "setting": "[7]; 0 min", "result": 100.0, "unit": "%"}, {"measurement": "% remaining Vs T = 0 min", "setting": "[7]; 30 min", "result": 97.7, "unit": "%"}, {"measurement": "% remaining Vs T = 0 min", "setting": "[7]; 60 min", "result": 97.6, "unit": "%"}, {"measurement": "% remaining Vs T = 0 min", "setting": "[7]; 90 min", "result": 98.6, "unit": "%"}, {"measurement": "% remaining Vs T = 0 min", "setting": "[7]; 120 min", "result": 98.5, "unit": "%"}, {"measurement": "half-life at 10 μM", "setting": "[8]", "result": 4.45, "unit": "h"}, {"measurement": "hepatocyte CLint at 10 μM", "setting": "[8]", "result": 5.2, "unit": "µL/min/1e6 cells"}, {"measurement": "% remaining Vs T = 0 min", "setting": "human hepatocytes; 0 min", "result": 100.0, "unit": "%"}, {"measurement": "% remaining Vs T = 0 min", "setting": "human hepatocytes; 30 min", "result": 91.7, "unit": "%"}, {"measurement": "% remaining Vs T = 0 min", "setting": "human hepatocytes; 60 min", "result": 85.3, "unit": "%"}, {"measurement": "% remaining Vs T = 0 min", "setting": "human hepatocytes; 90 min", "result": 80.7, "unit": "%"}, {"measurement": "% remaining Vs T = 0 min", "setting": "human hepatocytes; 120 min", "result": 72.4, "unit": "%"}]}
{"compound": "COc1cc2c(cc1OC)CN(CCc1ccc(NC(=O)c3cccc4c(=O)c5cccc(OC)c5[nH]c34)cc1)CC2", "note": "[elacridar]", "values": [{"measurement": "inhibition at 3 μM", "setting": "P-gp", "result": "98.4 ± 0.53", "unit": "%"}]}
{"compound": "COc1cc2nc(N3CCN(C(=O)c4ccco4)CC3)nc(N)c2cc1OC", "note": "[prazosin, reference compound]", "values": [{"measurement": "Papp A→B at 2 µM", "setting": "BCRP", "result": "8.06 ± 0.76", "unit": "×10⁻⁶ cm/s"}, {"measurement": "Papp B→A at 2 µM", "setting": "BCRP", "result": "47.7 ± 2.77", "unit": "×10⁻⁶ cm/s"}]}
{"compound": "Nc1ccn([C@H]2CC[C@@H](CO)O2)c(=O)n1", "note": "[zalcitabine]", "values": [{"measurement": "OXPHOS 5 and total ATP levels, caspase 3 or ROS/RNS levels", "setting": "HepG2 cells; 2-week", "result": "No significant decrease"}, {"measurement": "decrease in OXPHOS 1", "setting": "HepG2 cells; 2-week", "result": "~ 80%"}, {"measurement": "decrease in OXPHOS 3", "setting": "HepG2 cells; 2-week", "result": "~ 20%"}, {"measurement": "decrease in OXPHOS 4", "setting": "HepG2 cells; 2-week", "result": "~ 70%"}, {"measurement": "increase in total glutathione content", "setting": "HepG2 cells; two weeks", "result": "~ 35%"}]}
